In paper PMC4613797 (Journal of medicinal chemistry, 2015):

Key:
[1] = mice, up to a dose of 60 µg/kg ref 18, 19; cited from earlier work
[2] = tested on: vitamin D receptor (VDR); test: Lentiviral VDRE luciferase reporter assay in Caco-2 cells; type: cell-based
[3] = tested on: vitamin D receptor (VDR); test: Lentiviral VDRE luciferase reporter assay in HaCaT cells; type: cell-based, human
[4] = tested on: SKMEL 188 melanoma cells; conditions: SKMEL 188 melanoma cells ref 6; cited from earlier work
[5] = target: T1, Mouse CYP27B1 (Mus musculus, UniProt O35084); test: Kinetics of 1α-hydroxylation; type: in vitro ADME; conditions: for Km: 1α-hydroxylation by mouse CYP27B1, phospholipid vesicles, 2 min, ±SE of the curve fit
T1 sequence (O35084 1-507): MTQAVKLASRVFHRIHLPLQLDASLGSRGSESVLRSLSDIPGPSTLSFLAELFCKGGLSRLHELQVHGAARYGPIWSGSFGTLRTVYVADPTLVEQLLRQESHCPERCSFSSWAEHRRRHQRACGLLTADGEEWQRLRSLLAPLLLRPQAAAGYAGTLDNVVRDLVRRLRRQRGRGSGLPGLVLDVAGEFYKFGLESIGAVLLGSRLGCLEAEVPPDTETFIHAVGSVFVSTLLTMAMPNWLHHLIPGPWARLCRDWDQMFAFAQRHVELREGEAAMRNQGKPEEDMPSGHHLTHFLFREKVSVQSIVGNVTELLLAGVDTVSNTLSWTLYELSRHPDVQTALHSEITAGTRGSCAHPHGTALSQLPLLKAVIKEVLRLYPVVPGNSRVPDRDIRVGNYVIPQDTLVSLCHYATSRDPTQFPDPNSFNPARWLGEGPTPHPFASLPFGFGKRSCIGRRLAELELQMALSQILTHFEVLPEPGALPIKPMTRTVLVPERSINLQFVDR

[6] = tested on: IFNγ production by mouse splenocytes; test: IFNγ inhibition assay in mouse splenocytes; type: cell-based; conditions: 100 nM, versus control
[7] = Homo sapiens, Caco-2, 24 h, read-out: VDRE activation (EC50, nM) Caco-2, Caco-2, VDRE-luciferase, 24 h
[8] = read-out: VDRE activation (EC50, nM) Caco-2, Caco-2, VDRE-luciferase, 24 h
[9] = Homo sapiens, 24 h, read-out: VDRE activation (EC50, nM) HaCaT, HaCaT, VDRE-luciferase, 24 h
[10] = read-out: VDRE activation (EC50, nM) HaCaT, VDRE-luciferase, 24 h

Row | Compound | calcemic activity [1] | EC50 [2, 7] [nM] | EC50 [2, 8] [nM] | EC50 [3, 9] [nM] | EC50 [3, 10] [nM] | inhibiting colony formation, potency compared with 1,25(OH)2D3 [4] | Km [5] | kcat, fold higher than that for the 24S isomer ([5]; mouse CYP27B1, versus 20S,24S(OH)2D3) [fold] | catalytic efficiency (kcat/Km), fold higher than 20S,24S(OH)2D3 ([5]; mouse CYP27B1, versus 20S,24S(OH)2D3, listed as 20S,24R(OH)2D3) [fold] | effect on production of IFNγ by splenocytes (in words) [6]
1 | C=C1CC[C@H](O)C/C1=C/C=C1\CCC[C@@]2(C)[C@H]1CC[C@@H]2[C@@](C)(O)CCCC(C)C [20S(OH)D3, 20S-hydroxyvitamin D3] | noncalcemic |  |  |  |  |  |  |  |  | 
2 | C=C1CC[C@H](O)C/C1=C/C=C1\CCC[C@@]2(C)[C@H]1CC[C@@H]2[C@@](C)(O)CC[C@@H](O)C(C)C [Compound 17a, 20S,24R-dihydroxyvitamin D3] |  | > 1000 | > 1000 | > 1000 | > 1000 | more potent than 1,25(OH)2D3 | 7.99 ± 4.01 (mmol of substrate)/(mol of phospholipid) | 18 | 5 | 
3 | C=C1CC[C@H](O)C/C1=C/C=C1\CCC[C@@]2(C)[C@H]1CC[C@@H]2[C@@](C)(O)CC[C@H](O)C(C)C [Compound 17b, 20S,24S-dihydroxyvitamin D3] |  | > 1000 | > 1000 | > 1000 | > 1000 |  | 2.49 ± 0.59 (mmol of substrate)/(mol of phospholipid) |  |  | slightly increased production
